How the values were obtained:
Hepatitis B virus = assay: In vitro effective concentration required to inhibit hepatitisB virus (HBV) replication in 2.2.15 cell line; type: functional, organism-based
Human betaherpesvirus 5 [1] = assay: In vitro effective concentration required to inhibit AD169 strain of human cytomegalovirus (HCMV) replication in HFF cell line; type: functional, organism-based; details: Human betaherpesvirus 5, HFF
Human betaherpesvirus 5 [2] = assay: In vitro effective concentration required to inhibit towne strain of human cytomegalovirus (HCMV) replication in HFF cell line; type: functional, organism-based; details: Human betaherpesvirus 5, HFF
Human gammaherpesvirus 4 [3] = assay: In vitro cytotoxic concentration required to inhibit Epstein-Barr virus (EBV) replication in Daudi cells; type: functional; details: human gammaherpesvirus 4, Daudi
Human gammaherpesvirus 4 [4] = assay: In vitro effective concentration required to inhibit Epstein-Barr virus (EBV) replication in H-1 cell line; type: functional, organism-based; details: human gammaherpesvirus 4, H-1
HFF [5] = assay: In vitro effective concentration required to inhibit varicella zoster virus (VZV) replication in HFF cell line by plaque reduction assay; type: functional, cell-based; details: Homo sapiens
Murid betaherpesvirus 1 = assay: In vitro cytotoxic concentration required to inhibit murine cytomegalovirus (MCMV) replication in MEF cell line; type: functional
Human alphaherpesvirus 3 = assay: In vitro effective concentration required to inhibit varicella zoster virus (VZV) replication in HFF cell line; type: functional, organism-based; details: Human alphaherpesvirus 3, HFF
HFF [6] = assay: In vitro cytotoxic concentration required to inhibit AD169 strain of human cytomegalovirus (HCMV) replication in HFF cell line; type: functional
MEF = assay: In vitro effective concentration required to inhibit murine cytomegalovirus (MCMV) replication in MEF cell line; type: functional, cell-based; details: Mus musculus
Human betaherpesvirus 5 [7] = assay: In vitro cytotoxic concentration required to inhibit towne strain of human cytomegalovirus (HCMV) replication in HFF cell line; type: functional; details: Human betaherpesvirus 5, HFF
Human gammaherpesvirus 4 [8] = assay: In vitro effective concentration required to inhibit Epstein-Barr virus (EBV) replication in Daudi cells; type: functional, organism-based; details: human gammaherpesvirus 4, Daudi
HepG2 = assay: In vitro cytotoxic concentration required to inhibit hepatitisB virus (HBV) replication in 2.2.15 cell line; type: functional; details: Homo sapiens

Structure (SMILES)	EC50 (Hepatitis B virus)	EC50 (Human betaherpesvirus 5 [1])	EC50 (Human betaherpesvirus 5 [2])	CC50 (Human gammaherpesvirus 4 [3])	EC50 (Human gammaherpesvirus 4 [4])	EC50 (HFF [5])	CC50 (Murid betaherpesvirus 1; Murid betaherpesvirus 1, MEF)	EC50 (Human alphaherpesvirus 3)	CC50 (HFF [6])	EC50 (MEF)	CC50 (Human betaherpesvirus 5 [7])	EC50 (Human gammaherpesvirus 4 [8])	CC50 (HepG2)	CC50 (Murid betaherpesvirus 1)
Nc1nc(F)c2ncn(C=C3CC3(CO)CO)c2n1 [listing 1 of 2 here]	0.02 µM	43.7 µM	33 µM	> 189 µM	18.5 µM	180 µM	176 µM	31.7 µM	> 337 µM	18.9 µM	> 100 µM	> 189 µM	> 100 µM	
Nc1ccn(/C=C2/CC2(CO)CO)c(=O)n1	> 10 µM	14.3 µM	32 µM	70 µM	> 20 µM		> 448 µM	> 448 µM	> 448 µM	54 µM	> 100 µM	> 45 µM	> 50 µM	
Nc1nc(F)c2ncn(C=C3CC3(CO)CO)c2n1 [listing 2 of 2 here]	> 20 µM	22.2 µM	38 µM	> 189 µM	20.8 µM	50.1 µM	176 µM	41.8 µM	> 377 µM	18.9 µM	> 100 µM	> 189 µM	56.4 µM	
COc1nc(N)nc2c1ncn2C=C1CC1(CO)CO [listing 1 of 3 here]	> 20 µM	> 361 µM	> 100 µM	> 180 µM	> 20 µM			322 µM	> 361 µM		> 100 µM	> 180 µM	> 100 µM	
Nc1nc(N)c2ncn(C=C3CC3(CO)CO)c2n1 [listing 1 of 3 here]	> 20 µM	313 µM	> 100 µM	191 µM	> 20 µM			270 µM	> 381 µM		> 100 µM	< 0.31 µM	> 100 µM	
Nc1nc(Cl)c2ncn(C=C3CC3(CO)CO)c2n1 [listing 1 of 2 here]	> 20 µM	> 355 µM	> 100 µM	> 178 µM	16.4 µM			> 71 µM	> 301 µM		> 100 µM	142 µM	11.6 µM	
Nc1ncnc2c1ncn2/C=C1/CC1(CO)CO	> 10 µM	11.7 µM	3.6 µM	> 202 µM	16 µM		> 404 µM	> 404 µM	> 404 µM	9.7 µM	100 µM	166 µM	> 50 µM	
Nc1nc(N)c2ncn(C=C3CC3(CO)CO)c2n1 [listing 2 of 3 here]														Not toxic
COc1nc(N)nc2c1ncn2C=C1CC1(CO)CO [listing 2 of 3 here]	> 20 µM	2.7 µM	3.5 µM	> 180 µM	4.8 µM	3.3 µM	> 361 µM	11.2 µM	> 361 µM	2 µM	> 100 µM	161 µM	90 µM	
Nc1nc2c(ncn2COC(CO)CO)c(=O)[nH]1 [GANCICLOVIR]		2.3 µM	4.1 µM				> 35 µM		> 392 µM	5 µM	> 100 µM			
Nc1ncnc2c1ncn2/C=C1\CC1(CO)CO	> 10 µM	> 404 µM	> 100 µM	> 202 µM	> 20 µM	44.9 µM		11.7 µM	> 404 µM		> 100 µM	132 µM	> 50 µM	
Cc1cn(/C=C2\CC2(CO)CO)c(=O)[nH]c1=O	> 10 µM	> 420 µM	> 100 µM	> 210 µM	> 20 µM			> 420 µM	> 420 µM		> 100 µM	178 µM	> 50 µM	
COc1nc(N)nc2c1ncn2C=C1CC1(CO)CO [listing 3 of 3 here]														Not toxic
Nc1nc(Cl)c2ncn(C=C3CC3(CO)CO)c2n1 [listing 2 of 2 here]	> 20 µM	> 355 µM	> 100 µM	> 178 µM	16.4 µM			> 71 µM	> 355 µM		> 100 µM	> 178 µM	23.6 µM	
Cc1cn(/C=C2/CC2(CO)CO)c(=O)[nH]c1=O	> 10 µM	> 420 µM	> 100 µM	> 210 µM	19 µM			> 420 µM	> 420 µM		> 100 µM	4.6 µM	> 50 µM	
Nc1ccn(/C=C2\CC2(CO)CO)c(=O)n1	> 10 µM	> 448 µM	> 100 µM	> 224 µM	> 20 µM			> 448 µM	> 448 µM		> 100 µM	152 µM	> 50 µM	
Nc1nc(N)c2ncn(C=C3CC3(CO)CO)c2n1 [listing 3 of 3 here]	4 µM	> 381 µM	15 µM	> 191 µM	> 20 µM	38.9 µM		8.4 µM	> 381 µM		> 100 µM	> 191 µM	48 µM	
Nc1nc(NC2CC2)c2ncn(/C=C3/CC3(CO)CO)c2n1	> 20 µM	255 µM	> 100 µM	> 165 µM	> 20 µM			> 66 µM	> 331 µM		> 100 µM	> 165 µM	> 100 µM	
Nc1nc2c(ncn2/C=C2/CC2(CO)CO)c(=O)[nH]1 [FILOCICLOVIR]	> 10 µM	0.49 µM	0.46 µM	74 µM	7 µM		> 380 µM	> 380 µM	> 380 µM	0.27 µM	> 100 µM	45 µM	> 50 µM	
Nc1nc2c(ncn2/C=C2\CC2(CO)CO)c(=O)[nH]1	> 20 µM	120 µM	39 µM	> 190 µM	> 20 µM		> 380 µM	> 357 µM	> 380 µM	42 µM	> 100 µM	119 µM	> 50 µM	
Nc1nc(NC2CC2)c2ncn(/C=C3\CC3(CO)CO)c2n1	> 20 µM	327 µM	> 100 µM	> 165 µM	> 20 µM			> 331 µM	> 331 µM		> 100 µM	0.3 µM	> 100 µM	
